Assay results as given in patent US20250179027A1, “CYCLOALKYL OR HETEROCYCLYL SUBSTITUTED HETEROARYL COMPOUND, AND COMPOSITION AND USE THEREOF” (Shenzhen TargetRx, Inc., priority 2022, published 2025).

How the values were obtained:
EGFR = biological target: T1, EGFR (Homo sapiens, UniProt P00533); assay: HTRF kinase activity inhibition assay, EGFR; format: biochemical; conditions: HTRF TK kit
T1 construct: purchased Carna 08-115
Description: In this assay, the HTRF TK Kit (Catalog No. 62TKOPEC) provided by Cisbio was used to detect the inhibitory activity of compounds on BTK kinase and BTK C481S kinase and the selectivity of compounds relative to EGFR, ITK and TEC kinases.
Reagents and consumables: BTK kinase (Invitrogen, Catalog No. PV3587), BTK C481S (Carna, Product No. 08-547), ITK (Carna, Product No. 08-181), EGFR (Carna, Product No. 08-115), TEC (Carna, Product No. 08-182), HTRF-TK kit (Cisbio, Product No. 62TKOPEC), MgCl2 (Sigma, Product No. M1028), MnCl2 (Sigma, Product No. M1787), DTT (Sigma, Product No. D0632), ATP (Sigma, Product No. A7699-1 g), DMSO (Sigma, Product No. D2650), 384-well plate (PE, Product No. 6008280).
The entire operation steps were carried out on ice, and the total reaction volume was 10 μL. The compound (4 μL), substrate and ATP (4 μL), kinase (2 μL) were added in sequence to a 384-well plate, and shaked for 30 seconds. After an appropriate time at room temperature, the detection reagent was added. After 1 hour at room temperature, the plate was detected with a microplate reader. The specific steps were as follows: • a) 1× kinase buffer solution required for kinase detection was calculated according to the amount of the detection compound, and prepared as needed; • b) compounds with 2.5×working concentration were prepared, the 100 times gradient concentration solution of compounds was diluted by 4 μL to the desired concentration, mixed well, and added to each well at 4 μL per well; • c) 5×working concentration of substrate and ATP were prepared, mixed in a ratio of 1:1 before adding to a 384-well plate, and added to each well at 4 μL per well; • d) 5×working concentration of kinase was prepared, and 2 μL was added to each well; • e) the plate was shaked on a microplate oscillator for 30 seconds, sealed with a sealing membrane, and reacted at room temperature for an appropriate time; • f) 4×working concentrations of streptavidin XL-665 and TK antibody-cryptate compound were prepared, mixed in a ratio of 1:1 before adding to a 384-well plate, and added to each well at 10 μL per well; • g) the plate was read after reacting at room temperature for 1 hour; • h) the wells with only substrate, ATP and 1% DMSO added but no kinase were blank control wells, and the wells with only substrate, ATP, 1% DMSO and kinase were positive control wells.
Readings: The values of 620 nm (cryptate) and 665 nm (XL665) were read with a BioTek Synerg Neo2 microplate reader, the ratio of 665/620 per well was calculated, and the data were exported. Data analysis: IC50 was calculated using GraphPad Prism 7.0 software. The following nonlinear fitting formula was used to obtain the IC50 (half inhibitory concentration) of compounds:
[formula] • X: Compound concentration log value • Y: Inhibition rate (% inhibition)
The kinase inhibition rate (% inhibition rate) was calculated as: […]

[1] = biological target: T2, phosphorylated BTK Y223 in NIH/3T3 BTK C481S cells (Homo sapiens, UniProt Q06187, C481S); assay: Phosphor-BTK(Y223) assay, NIH/3T3 BTK C481S cells; format: cell-based; conditions: phosphorylated BTK Y223, NIH/3T3 BTK C481S cells; read-out: NIH/3T3 BTK-C481S pBTK IC50
T2 construct: expressed in transfected cells; host or cells: NIH/3T3 (mouse fibroblasts) engineered to express BTK C481S
How it was run: (§1)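 NIH/3T3 cells expressing BTK WT (7.5k/well) or C481S (10k/well) were treated with compound for 0.5 h at 37 °C, then 1 mM Na3VO4 was added for 2 h. Lysates were probed overnight at room temperature with HTRF p-BTK(Y223) cryptate/d2 antibodies (665/620 nm ratio). IC50 came from nonlinear fit of % inhibition against log concentration.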

[2] = biological target: T3, phosphorylated BTK Y223 in NIH/3T3 BTK WT cells (Homo sapiens, UniProt Q06187); assay: Phosphor-BTK(Y223) assay, NIH/3T3 BTK WT cells; format: cell-based; conditions: phosphorylated BTK Y223, NIH/3T3 BTK WT cells; read-out: NIH/3T3 BTK-WT pBTK IC50
T3 construct: expressed in transfected cells; host or cells: NIH/3T3 (mouse fibroblasts) engineered to express BTK WT
How it was run: as §1

T2 sequence (Q06187 whole entry C481S): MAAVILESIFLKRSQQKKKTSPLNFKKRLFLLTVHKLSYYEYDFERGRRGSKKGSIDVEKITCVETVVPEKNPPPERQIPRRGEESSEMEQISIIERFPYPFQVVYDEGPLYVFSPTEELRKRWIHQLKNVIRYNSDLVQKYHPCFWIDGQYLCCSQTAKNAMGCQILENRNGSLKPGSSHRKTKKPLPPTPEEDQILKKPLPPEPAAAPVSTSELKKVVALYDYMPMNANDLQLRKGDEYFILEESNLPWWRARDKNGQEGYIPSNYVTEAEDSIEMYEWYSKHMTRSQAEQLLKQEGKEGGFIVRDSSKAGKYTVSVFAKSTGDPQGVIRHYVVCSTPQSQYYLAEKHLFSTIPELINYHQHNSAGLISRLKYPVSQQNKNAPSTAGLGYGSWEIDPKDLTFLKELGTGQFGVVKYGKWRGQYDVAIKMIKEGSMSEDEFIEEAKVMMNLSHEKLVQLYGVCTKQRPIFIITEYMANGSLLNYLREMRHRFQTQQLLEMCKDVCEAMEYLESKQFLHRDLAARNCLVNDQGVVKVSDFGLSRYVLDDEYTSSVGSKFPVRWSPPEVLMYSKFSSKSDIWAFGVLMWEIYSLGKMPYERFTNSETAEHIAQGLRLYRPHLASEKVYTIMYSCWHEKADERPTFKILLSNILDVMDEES
T3 sequence (Q06187 whole entry): as the sequence (Q06187 whole entry C481S) above, with S481C counted along it
T1 sequence (P00533 669-1210 limits assumed): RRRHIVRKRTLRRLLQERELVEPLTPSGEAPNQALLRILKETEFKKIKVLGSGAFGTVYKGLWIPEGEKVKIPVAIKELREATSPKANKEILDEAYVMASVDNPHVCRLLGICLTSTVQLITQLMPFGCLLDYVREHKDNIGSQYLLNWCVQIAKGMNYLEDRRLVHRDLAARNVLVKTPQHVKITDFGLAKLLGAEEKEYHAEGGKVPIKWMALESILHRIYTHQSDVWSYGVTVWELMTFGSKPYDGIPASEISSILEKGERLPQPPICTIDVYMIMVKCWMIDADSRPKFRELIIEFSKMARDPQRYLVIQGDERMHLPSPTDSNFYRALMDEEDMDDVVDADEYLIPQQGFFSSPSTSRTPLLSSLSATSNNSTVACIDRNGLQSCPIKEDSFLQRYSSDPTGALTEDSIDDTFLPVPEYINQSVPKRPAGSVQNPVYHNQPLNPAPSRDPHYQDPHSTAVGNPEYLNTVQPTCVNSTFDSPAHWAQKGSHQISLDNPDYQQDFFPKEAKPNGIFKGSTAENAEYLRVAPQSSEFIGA

Row | Compound | IC50 (EGFR) [nM] | IC50 [1] [nM] | IC50 [2] [nM]
1 | COc1ccc(F)cc1C(=O)NCc1ccc(-c2nn(C3CCCC(O)C3)c3ncnc(N)c23)cc1 (stereo not drawn) [Example 4] | 100 to 1000 | 25 to 50 | ≤ 25
2 | COc1ccc(F)cc1C(=O)NCc1ccc(-c2nn(C3CCC(CO)OC3)c3ncnc(N)c23)cc1 (single isomer, unassigned) [Example 18, N-(4-(4-amino-1-(6-(hydroxymethyl)tetrahydro-2H-pyran-3-yl)-1H-pyrazolo[3,4-d]pyrimidin-3-yl)benzyl)-5-fluoro-2-methoxybenzamide] | 50 to 100 | ≤ 25 | ≤ 25
3 | COc1ccc(F)cc1C(=O)NCc1ccc(-c2nc(C3CCCC(O)C3)n3ccnc(N)c23)cc1 (stereo not drawn) [Example 20, N-(4-(8-amino-3-(3-hydroxycyclohexanyl)imidazo[1,5-a]pyrazin-1-yl)benzyl)-5-fluoro-2-methoxybenzamide] | 10 to 50 | ≤ 25 | ≤ 25
4 | COc1ccc(F)cc1C(=O)NCc1ccc(-c2nn(C3CCCC(O)C3)c3ncnc(N)c23)cc1 (single isomer, unassigned) [Example 7] | 100 to 1000 | 25 to 50 | ≤ 25
5 | COc1ccc(F)cc1C(=O)NCc1ccc(-c2cc(C3CCC(CO)OC3)n3ncnc(N)c23)cc1 (single isomer, unassigned) [Example 60, N-(4-(4-amino-7-(6-(hydroxymethyl)tetrahydro-2H-pyran-3-yl)pyrrolo[2,1-f][1,2,4]triazin-5-yl)benzyl)-5-fluoro-2-methoxybenzamide] | ≤ 10 | ≤ 25 | ≤ 25
6 | COc1ccc(F)cc1C(=O)NCc1ccc(-c2nn([C@H]3CC[C@H](CO)CC3)c3ncnc(N)c23)cc1 [Example 56, trans-N-(4-(4-amino-1-((1R,4R)-4-(hydroxymethyl)cyclohexyl)-1H-pyrazolo[3,4-d]pyrimidin-3-yl)benzyl)-5-fluoro-2-methoxybenzamide] | 10 to 50 | ≤ 25 | ≤ 25
7 | COc1ccc(F)cc1C(=O)NCc1ccc(-c2nc(C3CCCC(O)C3)n3ccnc(N)c23)cc1 (single isomer, unassigned) [Example 22, N-(4-(8-amino-3-(3-hydroxycyclohexanyl)imidazo[1,5-a]pyrazin-1-yl)benzyl)-5-fluoro-2-methoxybenzamide] | 10 to 50 | ≤ 25 | ≤ 25
8 | COc1ccc(F)cc1C(=O)NCc1ccc(-c2nn(C3CCC(O)CC3)c3ncnc(N)c23)cc1 [Example 29, N-(4-(4-amino-1-((1R,4R)-4-hydroxycyclohexyl)-1H-pyrazolo[3,4-d]pyrimidin-3-yl)benzyl)-5-fluoro-2-methoxybenzamide] | 50 to 100 | ≤ 25 | ≤ 25
9 | COc1ccc(F)cc1C(=O)NCc1ccc(-c2nn([C@H]3CC[C@@H](O)CC3)c3ncnc(N)c23)cc1 [Example 30, N-(4-(4-amino-1-((1S,4S)-4-hydroxycyclohexyl)-1H-pyrazolo[3,4-d]pyrimidin-3-yl)benzyl)-5-fluoro-2-methoxybenzamide] | 50 to 100 | ≤ 25 | ≤ 25
10 | COc1ccc(F)cc1C(=O)NCc1ccc(-c2cc(C3CCC(CO)OC3)n3ncnc(N)c23)cc1 (single isomer, unassigned) [Example 59, N-(4-(4-amino-7-(6-(hydroxymethyl)tetrahydro-2H-pyran-3-yl)pyrrolo[2,1-f][1,2,4]triazin-5-yl)benzyl)-5-fluoro-2-methoxybenzamide] | 10 to 50 | 50 to 100 | 25 to 50
11 | COc1ccc(F)cc1C(=O)NCc1ccc(-c2nn([C@H]3CC[C@@H](CO)CC3)c3ncnc(N)c23)cc1 [Example 55, cis-N-(4-(4-amino-1-((1S,4S)-4-(hydroxymethyl)cyclohexyl)-1H-pyrazolo[3,4-d]pyrimidin-3-yl)benzyl)-5-fluoro-2-methoxybenzamide] | 10 to 50 | ≤ 25 | ≤ 25
12 | COc1ccc(F)cc1C(=O)NCc1ccc(-c2nn(C3CCCC(O)C3)c3ncnc(N)c23)cc1 (single isomer, unassigned) [Example 5] | 50 to 100 | ≤ 25 | ≤ 25
13 | COc1ccc(F)cc1C(=O)NCc1ccc(-c2nn(C3CCCC(O)C3)c3ncnc(N)c23)cc1 (single isomer, unassigned) [Example 6] | 50 to 100 | ≤ 25 | ≤ 25
14 | COc1ccc(F)cc1C(=O)NCc1ccc(-c2nn(C3CCC(O)C3)c3ncnc(N)c23)cc1 (single isomer, unassigned) [Example 31, N-(4-(4-amino-1-(3-hydroxycyclopentanyl)-1H-pyrazolo[3,4-d]pyrimidin-3-yl)benzyl)-5-fluoro-2-methoxybenzamide] | 100 to 1000 | ≤ 25 | ≤ 25
15 | COc1ccc(F)cc1C(=O)NCc1ccc(-c2nn(C3CCCC(O)C3)c3ncnc(N)c23)cc1 (single isomer, unassigned) [Example 8] | 100 to 1000 | 50 to 100 | ≤ 25
